Measured values as given in US20190307776A1, “AZA-S[…] HUMAN IMMUNODEFICIENCY VIRUS REPLICATION” (priority 2016, published 2019).

Test system: recombinant NL4-3 virus
Assay: HIV cell culture assay
Assay type: cell-based
Settings: Human immunodeficiency virus 1, NL43, MT2
Method: HIV cell culture assay—MT-2 cells and 293T cells were obtained from the NIH AIDS Research and Reference Reagent Program. MT-2 cells were propagated in RPMI 1640 media supplemented with 10% heat inactivated fetal bovine serum, 100 […]. The 293T cells were propagated in DMEM media supplemented with 10% heat inactivated fetal bovine serum (FBS), 100 units/ml penicillin G and 100 μg/ml streptomycin. The proviral DNA clone of NL4-3 was obtained from the NIH AIDS Research and Reference Reagent Program. A recombinant NL4-3 virus, in which a section of the nef gene from NL4-3 was replaced with the Renilla luciferase gene, was used as a reference virus. In addition, residue Gag P373 was converted to P373S. Briefly, the recombinant virus was prepared by transfection of the altered proviral clone of NL4-3. Transfections were performed in 293T cells using LipofectAMINE PLUS from Invitrogen (Carlsbad, Calif.), according to manufacturer's instruction. The virus was titered in MT-2 cells using luciferase enzyme activity as a marker. Luciferase was quantitated using the Dual Luciferase kit from Promega (Madison, Wis.), with modifications to the manufacturer's protocol. The diluted Passive Lysis solution was pre-mixed with the re-suspended Luciferase Assay Reagent and the re-suspended Stop & Glo Substrate (2:1:1 ratio). Fifty (50) μL of the mixture was added to each aspirated well on assay plates and luciferase activity was measured immediately on a Wallac TriLux (Perkin-Elmer). Antiviral activities of inhibitors toward the recombinant virus were quantified by measuring luciferase activity in cells infected for 4-5 days with NLRluc recombinants in the presence serial dilutions of the inhibitor.

Compound	EC50 [nM]
C=C(C)[C@@H]1CC[C@]2(CO)CC[C@]3(C)[C@H](CC[C@@H]4[C@@]5(C)CCCN(C(=O)CCC(=O)O)C(C)(C)C5CC[C@]43C)[C@@H]12 (stereo partly drawn) [Example 3, 4-((7aR,7bR,9aS,12R,12aR,12bR,14aR,14bR)-9a-(hydroxymethyl)-5,5,7a,7b,14b-pentamethyl-12-(prop-1-en-2-yl)icosahydrocyclopenta[7,8]phenanthro[2,1-c]azepin-4(1H)-yl)-4-oxobutanoic acid]	> 8000
C=C(C)[C@@H]1CC[C@]2(CNCCCN3CCS(=O)(=O)CC3)CC[C@]3(C)[C@H](CC[C@@H]4[C@@]5(C)CCN(C(=O)CC(C)(C)CC(=O)O)C(C)(C)[C@@H]5CC[C@]43C)[C@@H]12 [Example 24, 5-((4aR,6aR,6bR,8aS,11R,11aR,11bR,13aR,13bR)-8a-(((3-(1,1-dioxidothiomorpholino)propyl)amino)methyl)-4,4,6a,6b,13b-pentamethyl-11-(prop-1-en-2-yl)icosahydro-3H-cyclopenta[5,6]naphtho[2,1-f]isoquinolin-3-yl)-3,3-dimethyl-5-oxopentanoic acid]	120
C=C(C)[C@@H]1CC[C@]2(CNCCCN3CCS(=O)(=O)CC3)CC[C@]3(C)[C@H](CC[C@@H]4[C@@]5(C)CCN(c6ccc(C(=O)O)nn6)C(C)(C)[C@@H]5CC[C@]43C)[C@@H]12 [Example 54, 6-((4aR,6aR,6bR,8aS,11R,11aR,11bR,13aR,13bR)-8a-(((3-(1,1-dioxidothiomorpholino)propyl)amino)methyl)-4,4,6a,6b,13b-pentamethyl-11-(prop-1-en-2-yl)hexadecahydro-1H-cyclopenta[5,6]naphtho[2,1-f]isoquinolin-3(2H,4H,13bH)-yl)pyridazine-3-carboxylic acid]	280
C=C(C)[C@@H]1CC[C@]2(CO)CC[C@]3(C)[C@H](CC[C@@H]4[C@@]5(C)CCN(C(=O)c6cccc(C(=O)O)c6)C(C)(C)C5CC[C@]43C)[C@@H]12 (stereo partly drawn) [Example 5, 3-((6aR,6bR,8aS,11R,11aR,11bR,13aR,13bR)-8a-(hydroxymethyl)-4,4,6a,6b,13b-pentamethyl-11-(prop-1-en-2-yl)icosahydro-1H-cyclopenta[5,6]naphtho[2,1-f]isoquinoline-3-carbonyl)benzoic acid]	1250
C=C(C)[C@@H]1CC[C@]2(CNCCCN3CCS(=O)(=O)CC3)CC[C@]3(C)[C@H](CC[C@@H]4[C@@]5(C)CCN(C(=O)C(=O)NC6(C(=O)O)CC6)C(C)(C)[C@@H]5CC[C@]43C)[C@@H]12 [Example 39, 1-(2-((4aR,6aR,6bR,8aS,11R,11aR,11bR,13aR,13bR)-8a-(((3-(1,1-dioxidothiomorpholino)propyl)amino)methyl)-4,4,6a,6b,13b-pentamethyl-11-(prop-1-en-2-yl)hexadecahydro-1H-cyclopenta[5,6]naphtho[2,1-f]isoquinolin-3(2H,4H,13bH)-yl)-2-oxoacetamido)cyclopropanecarboxylic acid]	> 3000
C=C(C)[C@@H]1CC[C@]2(C(=O)O)CC[C@]3(C)[C@H](CC[C@@H]4[C@@]5(C)CC(=O)N(c6ccc(C(=O)O)cc6)C(C)(C)[C@@H]5CC[C@]43C)[C@@H]12 [Example 22, (4aR,6aR,6bR,8aS,11R,11aR,11bR,13aR,13bR)-3-(4-carboxyphenyl)-4,4,6a,6b,13b-pentamethyl-2-oxo-11-(prop-1-en-2-yl)icosahydro-8aH-cyclopenta[5,6]naphtho[2,1-f]isoquinoline-8a-carboxylic acid]	> 3000
C=C(C)[C@@H]1CC[C@]2(CNCCCN3CCS(=O)(=O)CC3)CC[C@]3(C)[C@H](CC[C@@H]4[C@@]5(C)CCN(c6ccc(C(=O)O)c(F)c6)C(C)(C)[C@@H]5CC[C@]43C)[C@@H]12 [Example 45, 4-((4aR,6aR,6bR,8aS,11R,11aR,11bR,13aR,13bR)-8a-(((3-(1,1-dioxidothiomorpholino)propyl)amino)methyl)-4,4,6a,6b,13b-pentamethyl-11-(prop-1-en-2-yl)icosahdro-3H-cyclopenta[5,6]naphtho[2,1-f]isoquinolin-3-yl)-2-fluorobenzoic acid]	20
C=C(C)[C@@H]1CC[C@]2(CNCCCN3CCS(=O)(=O)CC3)CC[C@]3(C)[C@H](CC[C@@H]4[C@@]5(C)CCN(C(=O)/C=C/c6ccc(C(=O)O)cc6)C(C)(C)[C@@H]5CC[C@]43C)[C@@H]12 [Example 29, 4-((E)-3-((4aR,6aR,6bR,8aS,11R,11aR,11bR,13aR,13bR)-8a-(((3-(1,1-dioxidothiomorpholino)propyl)amino)methyl)-4,4,6a,6b,13b-pentamethyl-11-(prop-1-en-2-yl)hexadecahydro-1H-cyclopenta[5,6]naphtho[2,1-f]isoquinolin-3(2H,4H,13bH)-yl)-3-oxoprop-1-en-1-yl)benzoic acid]	1590
C=C(C)[C@@H]1CC[C@]2(CNCCCN3CCS(=O)(=O)CC3)CC[C@]3(C)[C@H](CC[C@@H]4[C@@]5(C)CCN(C(=O)Cc6cccc(CC(=O)O)c6)C(C)(C)[C@@H]5CC[C@]43C)[C@@H]12 [Example 27, 2-(3-(2-((4aR,6aR,6bR,8aS,11R,11aR,11bR,13aR,13bR)-8a-(((3-(1,1-dioxidothiomorpholino)propyl)amino)methyl)-4,4,6a,6b,13b-pentamethyl-11-(prop-1-en-2-yl)hexadecahydro-1H-cyclopenta[5,6]naphtho[2,1-f]isoquinolin-3(2H,4H,13bH)-yl)-2-oxoethyl)phenyl)acetic acid]	300
C=C(C)[C@@H]1CC[C@]2(CNCCCN3CCS(=O)(=O)CC3)CC[C@]3(C)[C@H](CC[C@@H]4[C@@]5(C)CCN(c6ncc(C(N)=O)cn6)C(C)(C)[C@@H]5CC[C@]43C)[C@@H]12 [Example 50, 2-((4aR,6aR,6bR,8aS,11R,11aR,11bR,13aR,13bR)-8a-(((3-(1,1-dioxidothiomorpholino)propyl)amino)methyl)-4,4,6a,6b,13b-pentamethyl-11-(prop-1-en-2-yl)hexadecahydro-1H-cyclopenta[5,6]naphtho[2,1-f]isoquinolin-3(2H,4H,13bH)-yl)pyrimidine-5-carboxamide]	60
C=C(C)[C@@H]1CC[C@]2(CNCCCN3CCS(=O)(=O)CC3)CC[C@]3(C)[C@H](CC[C@@H]4[C@@]5(C)CCN(c6ccc(C(=O)O)cc6)C(C)(C)[C@@H]5CC[C@]43C)[C@@H]12 [Example 48, 4-((4aR,6aR,6bR,8aS,11R,11aR,11bR,13aR,13bR)-8a-(((3-(1,1-dioxidothiomorpholino)propyl)amino)methyl)-4,4,6a,6b,13b-pentamethyl-11-(prop-1-en-2-yl)hexadecahydro-1H-cyclopenta[5,6]naphtho[2,1-f]isoquinolin-3(2H,4H,13bH)-yl)benzoic acid]	5
C=C(C)[C@@H]1CC[C@]2(CO)CC[C@]3(C)[C@H](CC[C@@H]4[C@@]5(C)CCCN(S(=O)(=O)c6ccc(CC(=O)O)cc6)C(C)(C)C5CC[C@]43C)[C@@H]12 (stereo partly drawn) [Example 15, 2-(4-(((7aR,7bR,9aS,12R,12aR,12bR,14aR,14bR)-9a-(hydroxymethyl)-5,5,7a,7b,14b-pentamethyl-12-(prop-1-en-2-yl)icosahydrocyclopenta[7,8]phenanthro[2,1-c]azepin-4(1H)-yl)sulfonyl)phenyl)acetic acid]	> 8000
C=C(C)[C@@H]1CC[C@]2(NCCN3CCS(=O)(=O)CC3)CC[C@]3(C)[C@H](CC[C@@H]4[C@@]5(C)CCN(c6ncc(C(=O)O)cn6)C(C)(C)[C@@H]5CC[C@]43C)[C@@H]12 [Example 53, 2-((4aR,6aR,6bR,8aS,11R,11aR,11bR,13aR,13bR)-8a-((2-(1,1-dioxidothiomorpholino)ethyl)amino)-4,4,6a,6b,13b-pentamethyl-11-(prop-1-en-2-yl)hexadecahydro-1H-cyclopenta[5,6]naphtho[2,1-f]isoquinolin-3(2H,4H,13bH)-yl)pyrimidine-5-carboxylic acid]	1
C=C(C)[C@@H]1CC[C@]2(CO)CC[C@]3(C)[C@H](CC[C@@H]4[C@@]5(C)CCN(S(=O)(=O)c6ccsc6C(=O)O)C(C)(C)C5CC[C@]43C)[C@@H]12 (stereo partly drawn) [Example 21, 3-(((6aR,6bR,8aS,11R,11aR,11bR,13aR,13bR)-8a-(hydroxymethyl)-4,4,6a,6b,13b-pentamethyl-11-(prop-1-en-2-yl)icosahydro-3H-cyclopenta[5,6]naphtho[2,1-f]isoquinolin-3-yl)sulfonyl)thiophene-2-carboxylic acid]	> 8000
C=C(C)[C@@H]1CC[C@]2(CO)CC[C@]3(C)[C@H](CC[C@@H]4[C@@]5(C)CCCN(S(=O)(=O)c6ccc(C)c(C(=O)O)c6)C(C)(C)C5CC[C@]43C)[C@@H]12 (stereo partly drawn) [Example 16, 5-(((7aR,7bR,9aS,12R,12aR,12bR,14aR,14bR)-9a-(hydroxymethyl)-5,5,7a,7b,14b-pentamethyl-12-(prop-1-en-2-yl)icosahydrocyclopenta[7,8]phenanthro[2,1-c]azepin-4(1H)-yl)sulfonyl)-2-methylbenzoic acid]	> 8000
